Experimental data as given in US10682310B2, “Therapeutic compounds and formulations for intranasal delivery” (priority 2015, dated 2020).
Values joined by “and” are separate entries in the source; they are usually repeats but may differ in a detail not shown here. Equal values may be shown once. Where a name gives a salt, the structure may show the parent alone.

What was measured:
[1] = MDZ equilibrium solubility in assay buffer; type: physicochemical; details: aqueous buffer, thermodynamic from solid; assay buffer pH 7.4, 32° C.
Procedure: Equilibrium solubility of MDZ in assay buffer was determined at three temperatures: 25, 32 and 37° C. There was essentially no effect of temperature on drug thermodynamic solubility within this temperature range.

[2] = test system: MDCKII-wt monolayers; experiment: Monolayer intactness by TEER and Lucifer yellow permeability after 2 h exposure; details: A.O. protease 1-16 U/mL
Procedure: (§1) Following previously published procedures (Kapoor M, et al., AAPS J, 2014, 16, 3, 577-585; and Kapoor M, et al., Mol Pharm, 2013, 10, 9, 519-3524), Madin Darby canine kidney II wild type (MDCKII-wt: passages between 10 and 20) cells were cultured and grown as monolayers in 12-well Transwell plates ([…] pore size, polyester, Corning). Transepithelial electrical resistance (TEER) was measured to assure membrane integrity just prior to conversion/permeation experiments. TEER and a Lucifer yellow dye permeability assay were used to reassess monolayer integrity at the conclusion of each experiment.

[3] = test system: MDCKII-wt monolayer; experiment: Membrane permeation across MDCKII-wt monolayers (Transwell)
Procedure: (§2) In vitro permeation studies were also performed on prodrug/enzyme mixtures prepared at various prodrug and enzyme concentrations. […] The experiments were carried out as follows. Maden Darby Canine Kidney-II wild type (MDCK-IIwt) cells were plated on thin membranes in a six well Transwell apparatus. Following confluence and washing, assay buffer (PBS, pH 7.4) was introduced into the basal side of the membrane. At time zero, solutions of various concentrations of prodrug were combined with 0.25 U/ml of A.O protease and introduced on the […] side of the membrane. Aliquots were then taken, with replacement, from both the basal and apical sides, and assayed for both drug and prodrug. The integrity of the membranes throughout the experiment was confirmed by transepithelial resistance (TEER) and inulin permeation measurements.
as §1
(§3) In separate experiments, solutions containing 900 μM AVFp or AVFm were rapidly mixed with A.O. protease (4 U/mL) in assay buffer (pH 7.4 at 32° C.), and administered at time zero on the apical side of MDCKII-wt monolayers cultured in a 12-well Transwell plate (Kapoor M, et al., AAPS J, 2014, 16, 3, 577-585; and Kapoor M, et al., Mol Pharm, 2013, 10, 9, 519-3524).
(§4) To assess transport of MDZ through the MDCKII-wt monolayer membrane, MDZ, 55 μM (S=1) was introduced on the apical side of the monolayer in a 12-well Transwell, and accumulation of MDZ on the basal side was assayed as a function of time.

[4] = as above; details: dog, MDCK
Procedure: as §2, §1, §3, §4

[5] = test system: A.O. protease; experiment: Conversion of prodrug by A.O. protease on apical side of MDCKII-wt monolayers, supersaturated drug; type: in vitro ADME, Aspergillus Oryzae; details: for precipitates of supersaturated drug formed from prodrug/enzyme: apical compartment after prodrug/A.O. protease administration
Procedure: The same was also shown for MDZ-pro. The experiments were carried out as follows.
Appropriate molar concentrations of MDZ-pro equivalent to supersaturated MDZ solution were incubated with the converting enzyme in assay buffer, pH 7.4 at 32° C. (nasal temperature). Supersaturation potential, S, was calculated as the ratio between the molar concentration of administered MDZ-pro and the molar concentration of saturated MDZ:
Rapidly mixed solutions of chirally pure MDZ-pro and A.O protease were administered onto the apical side of MDCKII-wt monolayers and MDZ-pro, and MDZ concentrations were analyzed on both the apical and basal sides as a function of time. An example of prodrug and drug kinetics in the apical compartment is shown in FIG. 5b (MDZ-pro 326 μM, A.O. protease 16 U/mL). Rapid conversion of prodrug (complete within 30 min) was followed by an extended residence of supersaturated drug in the apical chamber, with supersaturation reached in less than 5 min. […] Apical concentrations of MDZ were close to those predicted, based on a two compartment model with input due to enzymatic conversion of MDZ-pro to MDZ, with assumed rate constant kconv=Vmax/KM.

[6] = test system: A.O. protease (Aspergillus Oryzae); experiment: Enzyme kinetics of prodrug conversion by A.O. protease (HPLC, integrated Michaelis-Menten fit); type: biochemical; details: for conversion of prodrug to DZP: 480 μM prodrug, A.O. protease 2-8 U/mL; for conversion of prodrug to DZP / Km / Vmax: assay buffer pH 7.4, 32° C.; for extent of conversion by A.O. protease: chirally pure prodrug; for catalytic efficiency as Vmax/(U/mL of A.O. protease): pH 7.4, 32° C.
Procedure: Enzyme Kinetics. To determine the enzyme kinetic parameters KM and Vmax for a prodrug/enzyme system, various concentrations of prodrug were incubated in assay buffer, pH 7.4 containing A.O. protease, at 32° C., for a fixed time period t, at which point the reaction was stopped using methanol as an enzyme denaturant. […] The reactions were carried out to times when there was already substantial conversion. Concentrations of product, Cd(t) were fit against initial prodrug concentrations, Cp (0), using the integrated Michaelis-Menten equation: Cd(t)+KM ln[1−Cd(t)/Cp(0)]=Vmaxt (1) Fitting was carried out using the Matlab nlinfit function (Mathworks).
AVFm and AVFp (each at 480 μM) were incubated with A.O. protease (2-8 U/mL) in assay buffer over various time intervals in assay buffer pH 7.4 at 32° C.
The Michaelis Menten parameters for AVFp reactions were determined by carrying out reactions for t=5 min in solutions containing A.O. protease.
The extent of reaction was determined after t=12 min with MDZ-pro incubated, at different concentrations, in assay buffer with 4 U/ml A.O. protease.

[7] = AVFp to DZP, 0.25 U/ml A.O. protease, t=5 min
[8] = MDZ-pro to MDZ, 4 U/ml A.O. protease, t=12 min, estimates (s.e.m.)
[9] = MDZ-pro 326 μM, A.O. protease 16 U/mL, apical compartment

Cc1ncc2n1-c1ccc(Cl)cc1C(c1ccccc1F)=NC2 [MDZ, midazolam]
solubility thermodynamic [1]: 55 µM and 15.5 µg/mL | % TEER values [2]: unaffected | clearance CL of the membrane ([3]; MDZ 55 μM (S=1) apical, 12-well Transwell, two compartment model fit): 0.11 ± 0.01 mL/h | Papp A→B at 55 μM [4]: 26.5 ×10⁻⁶ cm/s | precipitates of supersaturated drug formed from prodrug/enzyme [5]: none were found

CN(C(=O)CNC(=O)[C@@H](N)CCCCN)c1ccc(Cl)cc1C(=O)c1ccccc1 [AVFp, Avizafone Hydrochloride]
conversion of prodrug to DZP ([6]; Hydrochloride): 100% | Km [6, 7]: 3.38 ± 0.34 mM | Vmax [6, 7]: 0.518 ± 0.030 mM/min | extent of conversion by A.O. protease [6]: complete conversion | catalytic efficiency as Vmax/(U/mL of A.O. protease) [6]: 2.07 mM/min/(U/ml) | rate and amount of DZP permeation compared with enantiomeric mixture AVFm ([3]; 900 μM prodrug, A.O. protease 4 U/mL, apical, pH 7.4, 32° C., each time point): greater

CN(C(=O)CNC(=O)[C@@H](N)CCCCN)c1ccc(Cl)cc1C(=O)c1ccccc1 [AVF, Avizafone]
permeation of prodrug across the membrane ([3]; AVF/enzyme administered on the apical side): not to permeate the membrane significantly | permeation of prodrug across the monolayer ([3]; in the absence of enzyme, AVF pure or mix (data not shown)): negligible permeation

CN(C(=O)CNC(=O)[C@@H](N)CCCCN)c1ccc(Cl)cc1C(=O)c1ccccc1 [AVFm]
conversion of prodrug to DZP [6]: ~70%

Cc1ncc(CNC(=O)[C@@H](N)CCCCN)n1-c1ccc(Cl)cc1C(=O)c1ccccc1F [MDZ-pro, Midazolam L-Lysine Prodrug]
% TEER values [2]: unaffected | Km [6, 8]: 5.86 ± 0.83 mM | Vmax [6, 8]: 0.233 ± 0.022 mM/min | extent of conversion by A.O. protease [6]: complete conversion | catalytic efficiency as Vmax/(U/mL of A.O. protease) [6]: 0.0582 mM/min/(U/ml) | conversion via endogenous enzymes ([3]; MDZ-pro alone (without enzyme), apical, 2 h, up to 2 mM): negligible conversion | prodrug permeation through MDCKII-wt monolayers ([3]; MDZ-pro alone (without enzyme), apical, 2 h, up to 2 mM initial prodrug concentration): negligible prodrug permeation | time to complete conversion of prodrug [5, 9]: ≤ 30 min | time to reach supersaturation [5, 9]: less than 5 min

CN1C(=O)CN=C(c2ccccc2)c2cc(Cl)ccc21 [DZP, diazepam]
precipitates of supersaturated drug formed from prodrug/enzyme [5]: no evidence of formation of DZP precipitates
